Experiments:
Type in all cases: ADME
[1] = biological target: T1, UDP-glucuronosyltransferase 1A6 (Homo sapiens, UniProt P19224); test: Activity of human recombinant UGT1A6 expressed in insect cells assessed as enzyme mediated glucuronidation at 500 uM by LC-MS/MS method
T1 sequence (P19224 whole entry): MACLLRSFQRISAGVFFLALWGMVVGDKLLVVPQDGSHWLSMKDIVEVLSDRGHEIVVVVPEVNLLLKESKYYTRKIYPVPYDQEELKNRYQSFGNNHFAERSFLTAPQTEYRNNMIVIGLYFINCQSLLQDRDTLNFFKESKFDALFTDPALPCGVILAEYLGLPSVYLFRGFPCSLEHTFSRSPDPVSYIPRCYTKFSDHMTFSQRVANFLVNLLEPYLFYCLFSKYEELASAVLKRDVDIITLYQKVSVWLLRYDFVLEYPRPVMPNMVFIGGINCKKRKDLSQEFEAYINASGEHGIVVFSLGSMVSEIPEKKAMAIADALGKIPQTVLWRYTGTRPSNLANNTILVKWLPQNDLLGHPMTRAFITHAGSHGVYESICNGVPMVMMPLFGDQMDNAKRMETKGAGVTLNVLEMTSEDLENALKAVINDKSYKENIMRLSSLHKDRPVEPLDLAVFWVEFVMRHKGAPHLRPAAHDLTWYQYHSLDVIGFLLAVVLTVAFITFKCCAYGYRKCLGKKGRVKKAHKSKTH

[2] = biological target: T2, UDP-glucuronosyltransferase 2B4 (Homo sapiens, UniProt P06133); test: Activity of human recombinant UGT2B4 expressed in insect cells assessed as enzyme mediated glucuronidation at 500 uM by LC-MS/MS method
T2 sequence (P06133 whole entry): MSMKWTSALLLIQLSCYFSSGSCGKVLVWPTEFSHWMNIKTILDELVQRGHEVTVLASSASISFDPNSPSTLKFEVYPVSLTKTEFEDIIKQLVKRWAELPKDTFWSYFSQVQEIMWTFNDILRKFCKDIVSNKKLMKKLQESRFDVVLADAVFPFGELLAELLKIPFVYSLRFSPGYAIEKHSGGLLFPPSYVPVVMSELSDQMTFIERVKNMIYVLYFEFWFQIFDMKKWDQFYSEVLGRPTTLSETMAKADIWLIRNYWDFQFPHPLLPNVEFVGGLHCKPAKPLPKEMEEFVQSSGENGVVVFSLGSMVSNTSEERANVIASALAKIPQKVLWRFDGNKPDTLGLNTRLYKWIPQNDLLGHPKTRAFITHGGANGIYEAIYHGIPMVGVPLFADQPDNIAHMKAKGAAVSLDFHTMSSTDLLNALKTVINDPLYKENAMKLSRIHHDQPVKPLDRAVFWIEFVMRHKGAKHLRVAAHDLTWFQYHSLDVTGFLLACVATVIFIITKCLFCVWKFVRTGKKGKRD

[3] = biological target: T3, UDP-glucuronosyltransferase 1A8 (Homo sapiens, UniProt Q9HAW9); test: Activity of human recombinant UGT1A8 expressed in insect cells assessed as enzyme mediated glucuronidation at 12.5 uM by LC-MS/MS method
T3 sequence (Q9HAW9 whole entry): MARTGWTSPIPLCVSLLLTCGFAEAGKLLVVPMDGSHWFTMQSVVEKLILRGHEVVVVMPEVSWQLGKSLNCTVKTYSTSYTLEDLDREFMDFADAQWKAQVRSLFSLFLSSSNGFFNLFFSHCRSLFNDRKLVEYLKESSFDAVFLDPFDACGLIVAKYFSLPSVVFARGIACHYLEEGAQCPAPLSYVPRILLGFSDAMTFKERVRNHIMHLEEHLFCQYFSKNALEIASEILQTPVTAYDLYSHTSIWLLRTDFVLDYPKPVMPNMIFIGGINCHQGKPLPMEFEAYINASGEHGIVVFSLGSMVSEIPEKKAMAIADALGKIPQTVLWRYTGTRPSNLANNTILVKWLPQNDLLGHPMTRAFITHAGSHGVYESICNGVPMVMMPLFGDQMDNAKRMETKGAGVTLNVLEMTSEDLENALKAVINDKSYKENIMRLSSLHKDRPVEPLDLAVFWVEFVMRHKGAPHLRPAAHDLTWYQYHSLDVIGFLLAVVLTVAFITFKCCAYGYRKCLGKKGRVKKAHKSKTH

Liver microsome = test: Drug metabolism in human liver microsomes assessed as drug glucuronidation in presence of 5 to 35 uM androsterone by LC-MS/MS method

Measured: Drug metabolism

CC1=NN(c2ccccc2)C(=O)C1 [EDARAVONE]
metabolite_detected: [1] | [2] | [3] | Liver microsome

Source: ChEMBL document CHEMBL3526061, “Glucuronidation of edaravone by human liver and kidney microsomes: biphasic kinetics and identification of UGT1A9 as the major UDP-glucuronosyltransferase isoform” (Drug Metab Dispos, 2012)
